In publication PMC3686551 (Tuberculosis (Edinburgh, Scotland), 2013):

Target: Mtb FtsZ (Mycobacterium tuberculosis, UniProt P9WN95)
Assay: FtsZ polymerization inhibition
Format: biochemical

Chain of Mtb FtsZ (P9WN95 whole entry): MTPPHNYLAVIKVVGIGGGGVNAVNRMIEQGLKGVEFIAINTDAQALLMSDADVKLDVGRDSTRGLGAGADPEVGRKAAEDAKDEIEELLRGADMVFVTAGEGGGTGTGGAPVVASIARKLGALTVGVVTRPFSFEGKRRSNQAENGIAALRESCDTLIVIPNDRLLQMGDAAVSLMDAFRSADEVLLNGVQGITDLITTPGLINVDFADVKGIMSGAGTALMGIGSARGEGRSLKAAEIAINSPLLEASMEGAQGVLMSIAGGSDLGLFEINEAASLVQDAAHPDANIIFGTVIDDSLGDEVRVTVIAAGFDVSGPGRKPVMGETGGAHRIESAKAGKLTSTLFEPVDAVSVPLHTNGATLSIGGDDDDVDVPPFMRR

CCCOc1ccc(N(C)c2cc(C)nc3ccc(Cl)cc23)cc1 [compound 3]
IC50: > 100 µM
